In US12642799B2, “Composition and method for treating COVID-19” (University of South Florida, priority 2021, dated 2026):
Like-named read-outs stand apart in the source and are kept apart here.

Key:
[1] = tested on: SARS CoV-2 infected Caco2 cells; assay type: cell-based
IL-6, IL-1β, and TNFα = assay type: cell-based
[2] = tested on: GFP-CoV-2 infected mature adipocytes; assay type: cell-based, SARS CoV-2; details: for reduction in infection by cytoimmunochemical staining (SARS CoV-2/ACE2): mature adipocytes, FIG. 3C
CoV-2 infection = assay type: in vivo, human; details: obese Type 2 diabetic patient, oral, retested twice over several weeks
[3] = tested on: serum inflammatory markers and anti-inflammatory cytokines; details: Type 2 diabetic patients; cited from earlier work

Row | SMILES | expression of SARS CoV-2 N protein (fold change) [1] | expression of SARS CoV-2 S protein (fold change) [1] | expression of IL-1β (fold change) (IL-6, IL-1β, and TNFα) | expression of IL-6 (fold change) (IL-6, IL-1β, and TNFα) | expression of TNFα (fold change) (IL-6, IL-1β, and TNFα) | inhibition of viral infection (integrated density of GFP expression) [2] | reduction in infection by cytoimmunochemical staining (SARS CoV-2/ACE2) [2] | inhibition of viral infection (integrated density of GFP expression) ([2]; […], metformin 10 mM, sitagliptin 20 uM) | virus test after treatment (CoV-2 infection) | anti-inflammatory cytokines [3] | serum levels of inflammatory markers [3]
1 | CN(C)C(=N)N=C(N)N [metformin] | decreasing expression | decreasing expression | decreasing expression | decreasing expression | decreasing expression | inhibited viral infection | reduction in infection |  |  |  | 
2 | N[C@@H](CC(=O)N1CCn2c(nnc2C(F)(F)F)C1)Cc1cc(F)c(F)cc1F [sitagliptin] | larger decrease than metformin | larger decrease than metformin | decreasing expression | decreasing expression | decreasing expression |  | highest reduction | highest reduction | tests negative for the virus | increased | significantly decreased
